Like-named read-outs stand apart in the source and are kept apart here.
What was measured:
[1] = target: T1, recombinant full length human JNK3 enzyme (Homo sapiens, UniProt P53779); test: JNK 3 inhibition assay (ATP depletion, luciferase); assay type: biochemical; conditions: for IC50: 10 uM ATP, ATF2 substrate; for JNK-3 inhibition (in words): see Table 2
T1 construct: recombinant full length human JNK2 or JNK3 enzyme; purchased Upstate; host or cells: Sf21 cells
Protocol: In a 96-well plate, recombinant full length human JNK2 or JNK3 enzyme (40 ng) expressed in Sf21 cells (Upstate) was incubated with the substrate ATF2 (3 uM) for 1 hour in the presence of 10 uM ATP. […] The ATP levels were quantified using luciferase with luminescence read on a Victor Light 1420 luminometer. IC50 calculations were plotted using a nonlinear regression curve fit.

[2] = target: T2, recombinant human phosphodiesterase 10A1 enzyme (Homo sapiens, UniProt Q9Y233); test: PDE10 inhibition assay (PDELight); assay type: biochemical; conditions: for IC50: 1 uM cAMP, read-out: PDE 10 Inhibition (IC50 in μM); for PDE-10 inhibition (in words): Table 2
T2 construct: purchased BPS Biosciences; host or cells: Baculovirus infected Sf9 cells
T2 sequence (Q9Y233 1-779 isoform Q9Y233-1): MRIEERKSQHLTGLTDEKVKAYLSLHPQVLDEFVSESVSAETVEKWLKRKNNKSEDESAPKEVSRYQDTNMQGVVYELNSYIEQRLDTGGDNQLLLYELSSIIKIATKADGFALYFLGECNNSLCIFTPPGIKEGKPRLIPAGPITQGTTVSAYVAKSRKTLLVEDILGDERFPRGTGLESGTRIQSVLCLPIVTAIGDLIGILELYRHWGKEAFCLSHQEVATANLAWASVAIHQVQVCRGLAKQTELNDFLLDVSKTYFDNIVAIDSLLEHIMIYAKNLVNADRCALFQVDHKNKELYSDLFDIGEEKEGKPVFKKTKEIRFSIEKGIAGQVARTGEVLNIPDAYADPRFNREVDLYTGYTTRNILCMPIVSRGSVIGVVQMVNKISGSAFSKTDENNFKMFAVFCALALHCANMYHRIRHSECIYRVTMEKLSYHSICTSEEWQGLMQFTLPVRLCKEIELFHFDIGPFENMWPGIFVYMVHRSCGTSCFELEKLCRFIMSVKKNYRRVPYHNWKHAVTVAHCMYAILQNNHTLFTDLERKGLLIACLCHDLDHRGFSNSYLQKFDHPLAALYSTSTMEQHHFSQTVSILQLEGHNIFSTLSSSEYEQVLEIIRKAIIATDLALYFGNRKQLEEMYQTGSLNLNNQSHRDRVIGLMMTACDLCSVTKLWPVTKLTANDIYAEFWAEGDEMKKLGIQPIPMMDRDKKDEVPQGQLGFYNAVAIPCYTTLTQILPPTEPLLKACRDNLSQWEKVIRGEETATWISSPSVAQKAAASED
Protocol: In a 96-well plate, recombinant human phosphodiesterase 10A1 enzyme (10 U/well) expressed in Baculovirus infected Sf9 cells (BPS Biosciences) was combined with 1 uM cAMP substrate (Sigma). […] Using a PDELight® kit (Cambrex), the amount of AMP produced in the reaction from the hydrolysis of cAMP was quantified using PDELight AMP Detection Reagent which converts the AMP directly to ATP. The assay uses luciferase, which catalyses the formation of light from the newly formed ATP and luciferin. The luminescence was read on a Victor Light 1420 luminometer. IC50 calculations were plotted using a nonlinear regression curve fit.

[3] = target: T3, catalytic domain of phosphodiesterase 4B enzyme cloned from human brain (Homo sapiens, UniProt Q07343); test: PDE4 inhibition assay (PDELight); assay type: biochemical; conditions: for IC50: 5 uM cAMP, read-out: PDE 4 Inhibition (IC50 in μM)
T3 construct: the catalytic domain of phosphodiesterase 4B enzyme; purchased Scottish Biomedical
T3 sequence (Q07343 330-659 limits assumed): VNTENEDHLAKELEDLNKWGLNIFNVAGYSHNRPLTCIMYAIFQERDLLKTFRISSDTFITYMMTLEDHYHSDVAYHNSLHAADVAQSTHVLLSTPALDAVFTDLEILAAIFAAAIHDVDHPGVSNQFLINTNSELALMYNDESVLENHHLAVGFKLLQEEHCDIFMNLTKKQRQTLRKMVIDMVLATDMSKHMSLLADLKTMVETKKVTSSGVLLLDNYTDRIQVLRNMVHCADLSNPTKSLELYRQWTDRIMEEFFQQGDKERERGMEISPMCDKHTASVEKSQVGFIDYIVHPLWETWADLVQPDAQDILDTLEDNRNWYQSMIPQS
Protocol: In a 96-well plate, the catalytic domain of phosphodiesterase 4B enzyme (40 mU/well) cloned from human brain (Scottish Biomedical) was combined with 5 uM cAMP substrate (Sigma). […] Using a PDELight® kit (Cambrex), the amount of AMP produced in the reaction from the hydrolysis of cAMP was quantified using PDELight AMP Detection Reagent which converts the AMP directly to ATP. The assay uses luciferase, which catalyses the formation of light from the newly formed ATP and luciferin. […] IC50 calculations were plotted using a nonlinear regression curve fit.

[4] = system: rat chronic constriction injury (CCI) model of neuropathic pain; test: Rat chronic constriction injury (CCI) model of neuropathic pain; assay type: in vivo; conditions: IP, dose not given; 50% paw withdrawal threshold, von Frey
Protocol: To induce allodynia, male Sprague-Dawley rats underwent chronic constriction injury (CCI) to the sciatic nerve as described by Bennett and Xie, Pain 1988; 33(1):87-107. The plantar surface of the hind paws was stimulated with von Frey filaments (Stoelting) to induce a withdrawal response by blinded personnel. The bending force of fiber required to induce a 50% withdrawal response was calculated following CCI surgery (pre-dosing baseline). N=5-6 allodynic rats received a single IP or oral administration of test compounds or vehicle. Two hours post-dosing, 50% paw withdrawal threshold was determined again by blinded testers using von Frey filaments. The 50% withdrawal threshold prior to CCI surgery, pre-dosing (10 days post-surgery), and 2 hours post-dosing are plotted.
For selected compounds multi-day studies were perfumed with pre-determined schedules for dosing and withdrawal threshold assessments.

[5] = system: at least one of JNK 3 or JNK 2 and at least one of PDE 10 or PDE 4; test: Dual inhibition (phosphodiesterase and JNK); assay type: biochemical, human; conditions: IC50 JNK 3 or JNK 2 less than about 5.00 μM and PDE 10 or PDE 4 less than about 20.0 or 30.0 μM
Protocol: In a 96-well plate, recombinant full length human JNK2 or JNK3 enzyme (40 ng) expressed in Sf21 cells (Upstate) was incubated with the substrate ATF2 (3 uM) for 1 hour in the presence of 10 uM ATP. The amount of ATP depletion by the JNK enzyme is measured in the presence or absence of test compounds (0-30 uM). The ATP levels were quantified using luciferase with luminescence read on a Victor Light 1420 luminometer. IC50 calculations were plotted using a nonlinear regression curve fit.
In a 96-well plate, the catalytic domain of phosphodiesterase 4B enzyme (40 mU/well) cloned from human brain (Scottish Biomedical) was combined with 5 uM cAMP substrate (Sigma). Test compounds (0-30 uM) or vehicle (0.5% DMSO) were added to the enzyme/substrate and incubated 1 hour. Using a PDELight® kit (Cambrex), the amount of AMP produced in the reaction from the hydrolysis of cAMP was quantified using PDELight AMP Detection Reagent which converts the AMP directly to ATP. The assay uses luciferase, which catalyses the formation of light from the newly formed ATP and luciferin. The luminescence was read on a Victor Light 1420 luminometer. IC50 calculations were plotted using a nonlinear regression curve fit.
In a 96-well plate, recombinant human phosphodiesterase 10A1 enzyme (10 U/well) expressed in Baculovirus infected Sf9 cells (BPS Biosciences) was combined with 1 uM cAMP substrate (Sigma). Test compounds (0-30 uM) or vehicle (0.5% DMSO) were added to the enzyme/substrate and incubated 1 hour. Using a PDELight® kit (Cambrex), the amount of AMP produced in the reaction from the hydrolysis of cAMP was quantified using PDELight AMP Detection Reagent which converts the AMP directly to ATP. The assay uses luciferase, which catalyses the formation of light from the newly formed ATP and luciferin. The luminescence was read on a Victor Light 1420 luminometer. IC50 calculations were plotted using a nonlinear regression curve fit.

[6] = target: T4, recombinant full length human JNK2 enzyme (Homo sapiens, UniProt P45984); test: JNK 2 inhibition assay (ATP depletion, luciferase); assay type: biochemical
T4 construct: recombinant full length human JNK2 or JNK3 enzyme; purchased Upstate; host or cells: Sf21 cells
T4 sequence (P45984 whole entry): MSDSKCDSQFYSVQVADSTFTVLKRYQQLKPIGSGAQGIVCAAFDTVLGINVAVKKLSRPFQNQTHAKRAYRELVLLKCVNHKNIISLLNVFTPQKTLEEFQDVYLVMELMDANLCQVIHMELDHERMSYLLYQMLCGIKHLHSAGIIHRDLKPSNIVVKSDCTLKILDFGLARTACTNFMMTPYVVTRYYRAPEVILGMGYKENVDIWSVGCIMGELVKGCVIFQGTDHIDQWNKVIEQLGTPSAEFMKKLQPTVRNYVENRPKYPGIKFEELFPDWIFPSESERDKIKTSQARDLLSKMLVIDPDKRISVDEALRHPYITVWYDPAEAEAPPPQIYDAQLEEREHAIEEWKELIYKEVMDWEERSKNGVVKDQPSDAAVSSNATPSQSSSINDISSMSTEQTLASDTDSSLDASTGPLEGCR
Protocol: In a 96-well plate, recombinant full length human JNK2 or JNK3 enzyme (40 ng) expressed in Sf21 cells (Upstate) was incubated with the substrate ATF2 (3 uM) for 1 hour in the presence of 10 uM ATP. […] IC50 calculations were plotted using a nonlinear regression curve fit.

[7] = system: Mouse BV-2 microglial cells; test: BV-2 glial cell assay (TNF-α and MCP-1 by Luminex); assay type: cell-based; conditions: for EC50: Mus musculus, BV-2, LPS and IFN-γ activated, 20 hours; for inhibiting glial cell activation (TNF-α and/or MCP-1): Table 3
Protocol: Mouse BV-2 microglial cells were seeded on 96-well plates at a concentration of 3×10^4 cells/well. Cells were activated with 100 ng/mL LPS and IFN-γ (100 ng/mL) in the presence or absence of test compounds (0-30 uM). Following incubation for 20 hours, cells were spun down and supernatant collected. The supernatant was analyzed via Luminex for the presence of TNF-α and MCP-1.

[8] = Oral pharmacokinetic evaluation; assay type: in vivo, rat; conditions: Sprague-Dawley rats
Protocol: Three male Sprague-Dawley rats were dosed orally via gavage with 15 mg/kg of test compound. Serial blood samples were collected from the jugular vein at 5, 15, and 30 min, 1, 3, and 6 hours post dosing. Samples were processed for plasma via centrifugation and plasma samples were stored frozen prior to analysis via a sensitive and specific HPLC/MS/MS method. PK parameters were calculated using WinNonLin (Pharsight).

[9] = read-out: IC50 value based upon a JNK 2 inhibition assay (range given)
[10] = 10 uM ATP, ATF2 substrate, read-out: JNK 2 Inhibition (IC50 in μM)
[11] = read-out: MCP-1 BV-2 (EC50 in μM)
[12] = read-out: TNF-a BV-2 (EC50 in μM)

T1 sequence (P53779 whole entry): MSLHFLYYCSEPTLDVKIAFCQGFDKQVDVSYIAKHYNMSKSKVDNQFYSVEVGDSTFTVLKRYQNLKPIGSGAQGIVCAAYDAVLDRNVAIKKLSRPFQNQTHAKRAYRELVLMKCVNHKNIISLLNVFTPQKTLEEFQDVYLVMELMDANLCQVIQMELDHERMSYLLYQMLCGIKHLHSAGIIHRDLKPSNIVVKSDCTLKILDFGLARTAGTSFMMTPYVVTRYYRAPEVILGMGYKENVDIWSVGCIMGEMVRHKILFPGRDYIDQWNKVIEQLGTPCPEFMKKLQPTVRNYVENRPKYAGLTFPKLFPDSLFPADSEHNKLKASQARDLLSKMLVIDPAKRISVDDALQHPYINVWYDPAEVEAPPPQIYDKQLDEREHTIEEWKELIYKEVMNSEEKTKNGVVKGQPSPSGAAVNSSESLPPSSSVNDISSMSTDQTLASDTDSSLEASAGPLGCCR

Compound	IC50 [1]	IC50 [2]	PDE-10 inhibition (in words) [2]	PDE-4 inhibition (in words) [3]	IC50 [3]	IP CCI efficacy (Change in grams) [4]	dual inhibition (phosphodiesterase and JNK) [5]	JNK-3 inhibition (in words) [1]	IC50 [6, 9]	IC50 [6, 10]	EC50 [7, 11]	EC50 [7, 12]	inhibiting glial cell activation (TNF-α and/or MCP-1) [7]	half life following oral dosing (in words) ([8]; oral)	half-life ([8]; male, Sprague-Dawley, rat, plasma, po, 15 mg/kg, 15 mg/kg oral gavage, plasma, read-out: Oral PK T½ (converted))	AUC(0-t) ([8]; male, rat, 15 mg/kg oral gavage, plasma, read-out: Oral PK AUClast)	Cmax ([8]; male, rat, 15 mg/kg oral gavage, plasma, read-out: Oral PK Cmax)
CC(C)c1nn2ccccc2c1-c1ccnc(NCCCO)n1 [AV1134, 3-(4-(2-isopropylpyrazolo[1,5-a]pyridin-3-yl)pyrimidin-2-ylamino)propan-1-ol]	8.2 µM	9.3 µM	particularly effective	particularly effective	6.2 µM	0 grams	effective dual inhibitors										
CC(C)c1nn2ccccc2c1-c1ccnc(NC2CC2)n1 [AV1136, N-cyclopropyl-4-(2-isopropylpyrazolo[1,5-a]pyridin-3-yl)pyrimidin-2-amine]	1.5 µM	16.8 µM	particularly effective	particularly effective	4.5 µM	0 grams	effective dual inhibitors	particularly effective									
CC(C)c1nn2ccccc2c1-c1ccnc(NC2CCC2)n1 [AV1156, N-cyclobutyl-4-(2-isopropylpyrazolo[1,5-a]pyridin-3-yl)pyrimidin-2-amine]	3 µM	20 µM		particularly effective	8.6 µM	0.33 grams	effective dual inhibitors		0.01 to 2 µM								
Cc1cccc2c(-c3ccnc(NC(C)C)n3)c(C(C)C)nn12 [AV1168, N-isopropyl-4-(2-isopropyl-7-methylpyrazolo[1,5-a]pyridin-3-yl)pyrimidin-2-amine]	2.2 µM	59 µM		particularly effective	2.9 µM	0 grams	effective dual inhibitors			8.1 µM							
CC(C)Nc1nccc(-c2c(-c3ccccc3)nn3ccccc23)n1 [AV1176, N-isopropyl-4-(2-phenylpyrazolo[1,5-a]pyridin-3-yl)pyrimidin-2-amine]	0.1 µM	> 100 µM		particularly effective	3.8 µM		effective dual inhibitors	particularly effective	0.01 to 2 µM	0.1 µM							
CC(C)Cc1nn2ccccc2c1-c1ccnc(NC(C)C)n1 [AV1177, 4-(2-isobutylpyrazolo[1,5-a]pyridin-3-yl)-N-isopropylpyrimidin-2-amine]	1.8 µM	> 100 µM		particularly effective	6.4 µM		effective dual inhibitors	particularly effective		3 µM							
Clc1cccc(-c2nn3ccccc3c2-c2ccnc(NC3CCCC3)n2)c1 [AV1194, 4-(2-(3-chlorophenyl)pyrazolo[1,5-a]pyridin-3-yl)-N-cyclopentylpyrimidin-2-amine]	0.08 µM	> 100 µM		particularly effective	5.2 µM		effective dual inhibitors	particularly effective	0.01 to 2 µM	0.1 µM	1.2 µM	0.03 µM	Particularly effective				
Brc1cccc(-c2nn3ccccc3c2-c2ccnc(NC3CCCC3)n2)c1 [AV1195, 4-(2-(3-bromophenyl)pyrazolo[1,5-a]pyridin-3-yl)-N-cyclopentylpyrimidin-2-amine]	0.05 µM	> 100 µM		particularly effective	4.9 µM	[0] grams	effective dual inhibitors	particularly effective	0.01 to 2 µM	0.09 µM	0.7 µM	0.03 µM	Particularly effective	particularly prolonged half lives	1.2 h	581 ng·h/mL	211 ng/mL
